Activity data for 50 molecules are collected here from ChEMBL document CHEMBL4421722, “Inhibitors of protein prenyltransferases” (2013).

Each structure is given as a SMILES string.

The species named for this assay is Rattus norvegicus. The experiment in a line: Inhibition of rat recombinant geranylgeranyltransferase type I expressed in Escherichia coli assessed as residual enzyme activity for geranylgeranylation of K-Ras4B at 50 uM incubated for 30 mins in presence of [3H]GGPP by scintillation counting assay relative to control.
On to `COc1cc([C@@H]2C[C@@H](SCc3ccccc3)[C@H](C(=O)O)CN2S(=O)(=O)c2ccc(C)cc2)cc(OC)c1OC`, for which the Activity turned out to be 63.7%.

In the case of `CCCS[C@@H]1C[C@@H](c2ccc(C)cc2)N(S(=O)(=O)c2ccccc2C)C[C@H]1C(=O)O`, the Activity was 99.4%.

Take `CCCS[C@@H]1C[C@@H](c2ccccc2F)N(S(=O)(=O)c2ccc(C)cc2)C[C@H]1C(=O)O`: the Activity was determined as 91.1%.

`COc1ccc([C@@H]2CC=C(C(C)=O)CN2S(=O)(=O)c2ccccc2)cc1`: the Activity worked out at 110%.

As for `Cc1ccc([C@H]2C(C(=O)O)=CC[C@@H](c3ccc(C#N)cc3)N2S(=O)(=O)c2ccc(C)cc2)cc1`, the Activity was 90.9%.

Regarding `COc1ccc([C@@H]2CC=C(C(=O)O)[C@H](c3cccc(Cl)c3)N2S(=O)(=O)c2ccc(Cl)cc2)cc1`, the Activity stood at 53.2%.

On to `CC(=O)C1=CC[C@@H](c2cccc3ccccc23)N(S(=O)(=O)c2ccc(C)cc2)C1`, for which the Activity is 95.6%.

Turning to `Cc1ccc(S(=O)(=O)N2[C@@H](c3cccc(C)c3)C(C(=O)O)=CC[C@H]2c2ccc3c(c2)OCO3)cc1`, the Activity was 70.6%.

As for `COc1cccc([C@@H]2C[C@@H](SC3CCCC3)[C@H](C(=O)O)CN2S(=O)(=O)c2ccc(C)cc2)c1`, the Activity turned out to be 113%.

Regarding `COc1ccc([C@@H]2CC=C(C(=O)O)[C@H](c3cccc(Br)c3)N2S(=O)(=O)c2ccccc2)cc1`, the Activity amounted to 58.2%.

With `COc1ccc(S[C@@H]2C[C@@H](c3ccc(OC)c(OC)c3)N(S(=O)(=O)c3ccc(C)cc3)C[C@H]2C(=O)O)cc1`, the Activity was 101%.

Regarding `COc1ccc([C@@H]2CC=C(C(=O)O)[C@H](c3cccc(C)c3)N2S(=O)(=O)c2ccccc2C)cc1`, the Activity worked out at 61.3%.

As to `CCCCS[C@@H]1C[C@@H](c2ccc(OC)cc2)N(S(=O)(=O)c2ccc(Cl)cc2)C[C@H]1C(=O)O`, the Activity is 72.9%.

For `Cc1ccc(S(=O)(=O)N2[C@@H](c3ccc(Br)cc3)C(C(=O)O)=CC[C@H]2c2ccccc2)cc1`, the Activity turned out to be 74.6%.

`Cc1ccc(S(=O)(=O)N2[C@@H](c3ccc(Cl)cc3)C(C(=O)O)=CC[C@H]2c2ccc(F)cc2)cc1`: the Activity stood at 64.8%.

Turning to `Cc1ccc(S[C@@H]2C[C@@H](c3ccc(C)cc3)N(S(=O)(=O)c3ccc(Cl)cc3)C[C@H]2C(=O)O)cc1`, the Activity was 92.4%.

For `Cc1ccc([C@@H]2C[C@@H](Sc3ccc(Cl)cc3)[C@H](C(=O)O)CN2S(=O)(=O)c2ccc(C)cc2)cc1`, the Activity turned out to be 57%.

On to `Cc1ccc(S(=O)(=O)N2[C@@H](c3cccc(Cl)c3)C(C(=O)O)=CC[C@H]2c2cccc(C)c2)cc1`, for which the Activity is 57.6%.

As to `CCS[C@@H]1C[C@@H](c2ccc(OC)cc2)N(S(=O)(=O)c2ccc(Cl)cc2)C[C@H]1C(=O)O`, the Activity was found to be 72.9%.

Take `COc1ccc([C@@H]2CC=C(C(=O)O)[C@H](c3ccc(F)cc3)N2S(=O)(=O)c2ccccc2C)cc1`: the Activity worked out at 66.1%.

As for `COc1ccc(S[C@@H]2C[C@@H](c3ccc(Cl)cc3)N(S(=O)(=O)c3ccc(C)cc3)C[C@H]2C(=O)O)cc1`, the Activity is 85.5%.

On to `CCCS[C@@H]1C[C@@H](c2ccc(OC)cc2)N(S(=O)(=O)c2ccc(Cl)cc2)C[C@H]1C(=O)O`, for which the Activity amounted to 72.8%.

On to `Cc1ccc([C@H]2C(C(=O)O)=CC[C@@H](c3cccc(Cl)c3)N2S(=O)(=O)c2ccc(C)cc2)cc1`, for which the Activity is 66.1%.

For `CCCCCS[C@@H]1C[C@@H](c2ccc(C)cc2)N(S(=O)(=O)c2ccccc2C)C[C@H]1C(=O)O`, the Activity came to 62.9%.

In the case of `Cc1ccc([C@@H]2C[C@@H](Sc3ccccc3)[C@H](C(=O)O)CN2S(=O)(=O)c2ccc(Cl)cc2)cc1`, the Activity is 87.1%.

Turning to `CC(=O)C1=CC[C@@H](c2ccc(C)cc2)N(S(C)(=O)=O)C1`, the Activity stood at 108%.

Regarding `Cc1ccc(S(=O)(=O)N2[C@@H](c3ccc(Cl)cc3)C(C(=O)O)=CC[C@H]2c2ccc(C#N)cc2)cc1`, the Activity is 73.1%.

As for `COc1ccc(S[C@@H]2C[C@@H](c3cccc(Br)c3)N(S(=O)(=O)c3ccc(C)cc3)C[C@H]2C(=O)O)cc1`, the Activity stood at 81.4%.

Turning to `Cc1ccc(S(=O)(=O)N2[C@@H](c3cccc(C)c3)C(C(=O)O)=CC[C@H]2c2cccs2)cc1`, the Activity was found to be 68.9%.

For the molecule `Cc1ccc(S[C@@H]2C[C@@H](c3cccc(Cl)c3)N(S(=O)(=O)c3ccc(C)cc3)C[C@H]2C(=O)O)cc1`, the Activity worked out at 88.8%.

`Cc1ccc(S(=O)(=O)N2[C@@H](c3cccc(F)c3)C(C(=O)O)=CC[C@H]2c2ccccc2)cc1`: the Activity was found to be 63.7%.

As to `Cc1ccc([C@@H]2C[C@@H](SCC(C)C)[C@H](C(=O)O)CN2S(=O)(=O)c2ccccc2)cc1`, the Activity came out at 51%.

For `CCCCS[C@@H]1C[C@@H](c2ccc(Cl)cc2)N(S(=O)(=O)c2ccccc2C)C[C@H]1C(=O)O`, the Activity stood at 87.5%.

Turning to `CCS[C@@H]1C[C@@H](c2ccccc2)N(S(=O)(=O)c2ccc(C)cc2)C[C@H]1C(=O)O`, the Activity amounted to 94.8%.

As for `Cc1ccc([C@@H]2CC=C(C(=O)O)[C@H](c3cccc(C)c3)N2S(=O)(=O)c2ccccc2)cc1`, the Activity turned out to be 69.8%.

With `CCOc1ccc([C@@H]2CC=C(C(=O)O)[C@H](c3cccc(C)c3)N2S(=O)(=O)c2ccc(C)cc2)cc1`, the Activity was found to be 65.3%.

Turning to `Cc1ccc([C@@H]2CC=C(C(=O)O)[C@H](c3cccc(C)c3)N2S(=O)(=O)c2ccccc2C)cc1`, the Activity amounted to 53.4%.

As for `COc1ccc([C@@H]2CC=C(C(=O)O)[C@H](c3ccc(C)cc3)N2S(=O)(=O)c2ccc(Cl)cc2)cc1`, the Activity amounted to 72.5%.

Turning to `Cc1ccc(S(=O)(=O)N2C[C@@H](C(=O)O)[C@H](SCc3ccc(C(C)(C)C)cc3)C[C@H]2c2ccccc2)cc1`, the Activity stood at 55.9%.

With `COc1ccc([C@@H]2CC=C(C(=O)O)[C@H](c3ccc(Cl)cc3)N2S(=O)(=O)c2ccc(Cl)cc2)cc1`, the Activity is 72.6%.

Take `Cc1ccc(S(=O)(=O)N2C[C@@H](C(=O)O)[C@H](SCC(C)C)C[C@H]2c2ccccc2F)cc1`: the Activity is 56.8%.

Take `CC(=O)C1=CC[C@@H](c2ccc(C)cc2)N(S(=O)(=O)c2ccccc2)C1`: the Activity was determined as 99%.

With `COc1ccc([C@@H]2C[C@@H](SCc3ccc(C(C)(C)C)cc3)[C@H](C(=O)O)CN2S(=O)(=O)c2ccc(Cl)cc2)cc1`, the Activity came out at 66%.

As to `CCS[C@@H]1C[C@@H](c2ccc(C)cc2)N(S(=O)(=O)c2ccccc2C)C[C@H]1C(=O)O`, the Activity came out at 83.6%.

For the molecule `Cc1ccc([C@@H]2CC=C(C(=O)O)[C@H](c3ccc(Br)cc3)N2S(C)(=O)=O)cc1`, the Activity was 84.5%.

Regarding `Cc1ccc(S(=O)(=O)N2[C@@H](c3cccc(C)c3)C(C(=O)O)=CC[C@H]2c2ccc(F)cc2)cc1`, the Activity was found to be 78.1%.

For the molecule `Cc1ccc(S(=O)(=O)N2[C@@H](c3ccc(Cl)cc3)C(C(=O)O)=CC[C@H]2c2ccc3c(c2)OCO3)cc1`, the Activity stood at 73.4%.

Take `Cc1ccc(S(=O)(=O)N2C[C@@H](C(=O)O)[C@H](SCC(C)C)C[C@H]2c2ccc3c(c2)OCO3)cc1`: the Activity is 81.7%.

For the molecule `Cc1ccc(S[C@@H]2C[C@@H](c3ccc(C)cc3)N(S(=O)(=O)c3ccccc3C)C[C@H]2C(=O)O)cc1`, the Activity stood at 92.4%.

Consider `CS(=O)(=O)N1[C@@H](c2cccc(Cl)c2)C(C(=O)O)=CC[C@H]1c1ccccc1`, for which the Activity is 72.4%.
